Source: ChEMBL document CHEMBL6121009, “Identification of a selective pyruvate dehydrogenase kinase 1 (PDHK1) chemical probe by virtual screening” (Eur J Med Chem, 2025)

Tests used:
[1] = biological target: [Pyruvate dehydrogenase (acetyl-transferring)] kinase isozyme 2, mitochondrial (Homo sapiens, UniProt Q15119)
Description: Inhibition of human PDHK2 using PDHKtide and Mn2+ as substrates pre-incubated for 20 min followed by addition of [gamma-33P]-ATP measured after 2 hrs by Radiometric Hotspot kinase assay

[2] = biological target: [Pyruvate dehydrogenase (acetyl-transferring)] kinase isozyme 3, mitochondrial (Homo sapiens, UniProt Q15120)
Description: Inhibition of human PDHK3 using myelin basic protein as substrate pre-incubated for 20 min followed by addition of [gamma-33P]-ATP measured after 2 hrs by Radiometric Hotspot kinase assay

[3] = biological target: [Pyruvate dehydrogenase (acetyl-transferring)] kinase isozyme 4, mitochondrial (Homo sapiens, UniProt Q16654)
Sequence of [Pyruvate dehydrogenase (acetyl-transferring)] kinase isozyme 4, mitochondrial (Q16654 whole entry): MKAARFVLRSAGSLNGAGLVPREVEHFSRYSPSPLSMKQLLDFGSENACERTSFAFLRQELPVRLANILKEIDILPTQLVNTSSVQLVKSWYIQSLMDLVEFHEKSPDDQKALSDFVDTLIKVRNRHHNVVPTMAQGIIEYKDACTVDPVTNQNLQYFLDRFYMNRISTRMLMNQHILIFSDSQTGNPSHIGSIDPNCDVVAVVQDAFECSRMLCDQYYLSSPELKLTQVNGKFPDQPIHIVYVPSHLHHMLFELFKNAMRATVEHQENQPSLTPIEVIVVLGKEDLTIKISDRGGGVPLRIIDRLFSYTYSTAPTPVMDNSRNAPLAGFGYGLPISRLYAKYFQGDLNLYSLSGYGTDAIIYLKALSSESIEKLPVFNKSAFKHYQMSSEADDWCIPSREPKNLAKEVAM
Description: Inhibition of human PDHK4 using myelin basic protein as substrate pre-incubated for 20 min followed by addition of [gamma-33P]-ATP measured after 2 hrs by Radiometric Hotspot kinase assay

Sequence of [Pyruvate dehydrogenase (acetyl-transferring)] kinase isozyme 3, mitochondrial (Q15120 whole entry): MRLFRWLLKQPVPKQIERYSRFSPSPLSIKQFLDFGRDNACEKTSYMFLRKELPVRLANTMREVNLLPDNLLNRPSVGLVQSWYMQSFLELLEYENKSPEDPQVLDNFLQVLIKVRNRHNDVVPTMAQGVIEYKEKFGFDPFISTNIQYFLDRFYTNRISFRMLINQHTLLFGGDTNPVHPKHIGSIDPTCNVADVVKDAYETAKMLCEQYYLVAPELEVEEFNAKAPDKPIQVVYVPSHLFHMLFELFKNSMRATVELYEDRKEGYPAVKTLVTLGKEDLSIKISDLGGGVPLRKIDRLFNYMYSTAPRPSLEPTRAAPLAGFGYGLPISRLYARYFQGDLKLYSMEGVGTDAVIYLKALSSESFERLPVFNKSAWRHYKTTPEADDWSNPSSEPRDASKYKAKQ

IC50 [1] | IC50 [2] | IC50 [3] | SMILES
> 30 µM | > 30 µM | > 30 µM | O=C(O)c1ccc(Br)c(NS(=O)(=O)c2ccc(Cl)s2)c1
> 30 µM | > 30 µM | 17 µM | O=C(O)c1ccc(Br)c(NS(=O)(=O)c2cc(Cl)cc(Cl)c2)c1
> 30 µM | > 30 µM | > 30 µM | COc1cc(C(=O)O)cc(NS(=O)(=O)c2cc(Cl)ccc2C)c1Cl
> 30 µM | > 30 µM | 15.5 µM | Cc1ccc(Cl)cc1S(=O)(=O)Nc1cc(C#N)ccc1Br
> 30 µM | > 30 µM | 23.6 µM | Cc1ccc(Cl)cc1S(=O)(=O)Nc1cc(Br)cc(C(=O)O)c1
> 30 µM | > 30 µM | > 30 µM | CSc1ccc(C(=O)O)cc1NS(=O)(=O)c1cc(Cl)ccc1C
> 30 µM | > 30 µM | 30 µM | Cc1ccc(Cl)cc1S(=O)(=O)Nc1cc(C(=O)O)ccc1Br

SMILES | IC50 [1] | IC50 [2] | IC50 [3]
O=C(O)C(Cl)Cl [DICHLOROACETIC ACID] | > 5000 µM | > 5000 µM | 108 µM
